Experimental data as given in patent publication US20100226900A1, “PREVENTION AND TREATMENT OF OSTEOCHONDROSIS IN ANIMALS AND HUMANS” (U.S. Borax Inc., priority 2005, published 2010).

Columns and labels:
sows and piglets = type: in vivo
Procedure: Boron was added to the diet of sows at 1 mg/kg body weight as boric acid. […] Among a group of 95 piglets the birth to weaning mortality was 2 piglets. The usual mortality for this farm was about 5 to 7%. These piglets remained on boron 50 ppm plus ascorbate 125 ppm. One pig was euthanized and examined at a weight of about 85 pounds. […] All bones of the appendicular skeleton were sectioned on the band saw.

crossbred pigs = test: 28-day feeding trial: phosphorus digestibility and excretion, feed conversion (Example 4); type: in vivo, pig
Procedure: Pigs were randomly allocated to 24 pens of 6 pigs per pen in a thermoneutral controlled environment barn with steel grid flooring. Each pen was equipped with a single-hole feeder. Water was available free-choice from a nipple drinker. […] Feces were collected on the last 3 days of the study from each pen and a pooled aliquot was dried and submitted for chemical analysis. Yttrium oxide was added to the diet at 0.05% and served as a marker for phosphorus digestibility. Pig growth and feed consumption was measured at the end of the study with the pen as the experimental unit. Data was analyzed for effects of boron and calcium by univariate and multivariate analysis of variance and t-tests.

[1] = tested on: pigs (boron crosslinks, osteochondrosis)
Procedure: The pigs were evaluated for lameness daily and euthanatized on day 13 and the joints and other organs were examined.

sows and their litters = test: Sow and litter trial in a commercial swine operation during a PRRSV outbreak (Example 3); type: in vivo, pig; conditions: sows given oral 1 mg boron per pound BW per day
Procedure: To test the effect of boron on sows and their litters, a trial was established in a large commercial swine operation during an outbreak of porcine viral reproductive and respiratory disease (PRRSV). Boron was administered orally to a group of 51 sows individually housed in crates at the rate of 1 mg boron per pound BW per day beginning 1 week prior to farrowing and continuing until the piglets were weaned at 14 days of age. […] Boron treatment was supplied as a single daily dosing and was discontinued at weaning. All sows were fed a standard commercial sow diet.

[2] = tested on: gestating and lactating sows and their piglets; test: Reproductive effects in sows: observation and preliminary pilot study (Example 3)
Procedure: Sows were fed a standard corn-soy diet. Half of the sows received an oral administration of a boron supplement to provide 1 mg boron per kg body weight.

[3] = tested on: growing swine (osteochondrosis); test: Boron supplementation and OC-associated lameness in growing swine (Example 1); type: in vivo, pig
Procedure: The basal diet consisted of commercial corn-soy diet containing 10 ppm boron.
Test diet group B was fed a basal diet plus 25 mg/kg boron as sodium borate decahydrate (borax). Test diet group A was fed a basal diet plus 25 mg/kg boron as sodium borate decahydrate (borax) and 250 mg/kg ascorbic acid.
Pigs were weighed at the beginning of the study, 4 weeks later and every 3 weeks until the end of the study. Animals were scored for soundness on a 5-point scale at each weighing. (Five-point scale: 1=no soundness defects; 2=minor soundness issues but still sound enough for retention as breeding animal; 3=not sound enough for retention for breeding but still marketable; 4=unsound, likely to be rejected at slaughter; 5=severely lame, requiring euthanasia for humane reasons.) Grading was done by the caretaker and the investigator at all weighing times. An experienced independent treatment-blind rater also evaluated the soundness of each animal and the ratings he provided were compared with the ratings of the caretaker and investigator by use of Cohen's Kappa test.
The animals were housed in a modern curtain sided barn with deep straw bedding, with ad libitum access to feed and water. Waterers and feeders were on a concrete pad but the remainder of the flooring was deep straw over a ground limestone and sand base. Floor space allowances exceeded the recommendations of the Guide for the Care and Use of Agricultural Animals in Agricultural Research and Teaching, First Revised Edition, 1999. Federation of Animal Science Societies. Savoy, Ill.
The basal diet (no boron supplemented) was analysed and found to contain boron at the rate of 10 ppm which is typical for a corn-soybean meal based diet.
At the end of the study the pigs were transported to a laboratory where they were euthanized and necropsied. Six pigs in each of group B and group A were put on the control diet for 7 days at the end of the study.
At necropsy, samples of liver, heart, kidney, fat, skeletal muscle, proximal tibia, blood, and the rostral snout were retained and frozen at −40° C. prior to chemical analysis. All joints of the axial skeleton were evaluated for the presence of gross lesions of osteochondrosis and graded on a 5 point scale. (5-point scale: 1=no gross abnormalities; 2=minor imperfections in articular conformation or articular reddening present but no cartilage erosions; 3=cartilage intact but surface irregularities of the cartilage are present; 4=fissuring or erosion of articular cartilage is obvious; 5=full thickness cartilage lesions or cartilage flaps, osteochondritis dissecans obviously present).
The proximal femur (femoral head) and articular surfaces and growth plates associated with the stifle, hock, shoulder, elbow and carpus were sectioned with a band saw and approx. 0.5 to 1.0 cm sections fixed in formalin. Bone sections were decalcified with formic acid/sodium citrate, embedded in paraffin and sectioned at 5 microns. Sections were deparaffinized according to standard procedures. Two sections were made from each joint and growth plate and stained with either hematoxylin/eosin (H&E) or with toluidine blue (pH 4)/fast green for evaluation of the articular cartilage, subchondral bone and growth plate.
Mean joint lesion scores, growth rate and soundness scores by treatment and by factors boron and ascorbate were compared using an analysis of variance and t-test as appropriate. Soundness scores were dichotomised into binary categorical variables for lameness (soundness score>2) and for absence of defects (soundness<2), and the binary variables analysed by chi-square and logistic regression.
Tissue specimens stained with H&E were examined microscopically for the presence of lesions of osteochondrosis. Toluidine Blue staining allowed assessment of retention or loss of proteoglycan from the extracellular matrix (ECM) of the cartilage. Each tissue section was scored by a treatment-blind board-certified pathologist. […]

[4] = tested on: sulfated glycosaminoglycan (sGAG) of cartilage; test: Glycosaminoglycan study: sGAG in articular cartilage plugs of fed pigs (Example 2); type: in vivo, pig; conditions: pigs fed 50 ppm boron; hock and elbow joints; unsupplemented 5045 ng/g; p<0.01
Procedure: Hock joints and elbow joints were obtained at necropsy from pigs in two feeding groups: one group having been fed a commercial ration supplemented with 50 mg B/kg feed and the other being fed only the standard commercial pig ration.
Cartilage plugs were harvested from the articular surfaces of 40 hock and elbow joints using a #5 (10.5 mm) cork borer. The samples were papain digested and analyzed for concentration of sulfated glycosaminoglycan (sGAG) using a spectrophotometric microplate analysis procedure adapted from Farndale, et al (1986), using a chondrotin sulfate standard. This method measures total sulfated glycosaminoglycan, most of which is chondrotin sulfate and keratan sulfate components of aggrecan. Aggrecan is the large aggregating proteoglycan of cartilage responsible for creating and maintaining the osmotic pressure of cartilage. Quanititation of sGAG concentration thus provides a measure of the weight-bearing and anti-friction properties of cartilage and is a measure of cartilage quality and durability.

pigs = conditions: about 100 pigs, 50 ppm boron as boric acid
Source text: An Iowa farm treated a group of about 100 pigs with 50 ppm boron as boric acid.

[5] = boron 50 ppm in feed, 3-NPB none, 5 pigs
[6] = sows fed 50 ppm supplemental boron, late gestation and early lactation

## [B] [boron]
Sows and piglets; one pig of about 85 pounds kept on boron 50 ppm plus ascorbate 125 ppm
  Joint findings at necropsy: No abnormalities were observed
Crossbred pigs; 50 ppm added B in feed, 28 days, no added B 33.4, p 0.017
  Phosphorus Digestibility (%): 36.3%
Crossbred pigs; 50 ppm added B in feed, 28 days, no added B 88.1, p 0.028
  Phosphorus excretion in Feces (g/Kg gain): 74.6 g/Kg gain
Crossbred pigs; boron added to the diet vs no added boron
  Reduction of phosphorus excretion per unit of production: 15%
[1]; [5]
  Clinical Lameness Score: count of pigs Normal: 5
  Clinical Lameness Score: count of pigs with Visible Lameness: 0
[1]; supplemental boron, no 3-NPB
  Prevalence and severity of osteochondrosis lesions in shoulder, stifle, hock and elbow joints: lowest prevalence of lesions and the lowest severity
Sows and their litters
  Effect on litter size at birth: no effects
  Effect on piglet birth weight: no effects
Sows and their litters; p=0.04
  Likelihood to conceive relative to control sows: 1.2 times
Sows and their litters; p=0.047
  Return to estrus, average days quicker than control sows: 1.6 days
[2]; pilot study, sows given oral 1 mg boron per kg body weight, non-supplemented 8.0 pounds
  Piglet weight at 12 days of age: 8.5 pounds
[2]; pilot study, sows given oral 1 mg boron per kg body weight, non-supplemented 23%, preliminary, first 600 pigs
  Pre-weaning mortality: 16%
[2]; [6]
  Piglet quality (uniformity, growth, general thrift): improved
  Pre-weaning piglet mortality (observation): reduced
[3]; 25 mg/kg boron as borax vs basal diet
  Joint health vs basal diet (FIG. 1): healthier joints
[3]; 25 ppm boron in feed (as borax), unsupplemented group 57%
  Growth plate lesions associated with widening, share of tissues: 19%
[3]; 25 ppm supplemental B in feed, unsupplemented pigs 21%
  Articular cartilage lesions (necrosis, hemorrhage, infarction, or streaks), share of tissues: 4%
[3]; boron supplemented group vs unsupplemented
  TBlue staining intensity of cartilage (semi-quantitative sGAG content): consistently higher
[3]; growing swine, boron supplementation
  Incidence of osteochondrosis-associated lameness: effective in reduction
[3]; pigs, supplemental boron 25 ppm to 50 ppm (FIGS. 1, 3, 4)
  Occurrence of osteochondrosis: significant reduction
[4]
  sGAG concentration in cartilage (dry matter basis): 11050 ng/g

## OB(O)O [boric acid]
Sows and piglets; among a group of 95 piglets, usual mortality of the farm about 5 to 7%
  Birth to weaning mortality: 2 piglets
Sows and piglets; sows, boron 1 mg/kg body weight as boric acid in diet
  Outcome in three noticeably and seriously lame sows: became perfectly sound
pigs
  Growth rate: excellent growth rate
pigs; estimated previous rate about 25 to 30%
  Lameness/unsoundness rate: zero
